Settings: 101.33 kPa, Liquid; for viscosity: Capillary tube (Ostwald / Ubbelohde) method; for mass density: Pycnometric method

C[S+](C)[O-] [dimethyl sulfoxide]
Settings	mass density [kg/m3]	viscosity [mPa·s]
298.15 K	1095.2	2
303.15 K	1090.6	1.8
308.15 K	1085.9	1.61
313.15 K	1081.3	1.44
318.15 K	1075.3	1.33
